How the values were obtained:
Experiment in all cases: KiNativ profiling in H3255 cells
Assay type in all cases: cell-based, human
AMPKa1, AMPKa2 = settings: 2.5 µM
Protocol: (§1) treatment. Cell viability was determined by using CellTiter-Glo (Promega #G7571) according to the manufacturer’s instructions, measuring luminescence using an Envision plate-reader (PerkinElmer Inc.). Dose-response curves were generated using non-linear regression curve fit in GraphPad Prism 9.2.0(GraphPad Software).
(§2) Cellular target engagement assays
(§3) After 6 hours treatment, cells were pelleted, washed with PBS once and lysed with IP lysis buffer (25mMTris-HCl pH 7.4, 150mM NaCl, 1 mM EDTA, 1% NP-40 and 5% glycerol) (Thermo Fisher Scientific, Cat#87788) containing protease/phosphatase inhibitor cocktail (Roche). The protein concentrations were measured by BCA analysis (Pierce). Cell lysates were incubated with 1 μM of biotin conjugated probe (bio-Osimertinib or bio-ZNL-0013) at 4 ℃ overnight, and incubated for 3 more hours at room temperature. Lysates with probe were then incubated with streptavidin beads (Thermo Fisher, #20349) for 2 hours at 4 ℃. The protein-probe complexes on the beads were then subjected to immunoblotting.
(§4) H3255 cells were plated with 6.5x10^6 per condition in fresh media in 15 cm plates and treated the 80% confluency for 2 hours with DMSO or 2.5 μM of ZNL-0056. To harvest cells, plates were washed 3 times with cold PBS, then collected by scraping into 4 mL of cold PBS containing protease and phosphatase inhibitors. Cells were pelleted by centrifugation at 1350 g at 4 ℃ for 5 minutes and immediately frozen in liquid nitrogen. The frozen samples were sent to ActivX Biosciences (La Jolla, CA) for the remainder of the KiNativ profiling experiment4.
(§5) Protein expression and purification
(§6) Human EGFR kinase domain (residues 696-1022) with T790M and V948R mutations was cloned with an N-terminal, protease cleavable His -GST tag. Recombinant protein was expressed in SF9 insect cells using baculovirus generated from the pFastBac system (Thermo Fisher) .
(§7) Briefly, cells at a density of ~2x10^6 cells/mL were infected with 1% (v/v) virus stock and grown for ~72 hours before harvesting and freezing the cell pellet . Infected cells were lysed in buffer A (50 mM Tris pH 8.0, 500 mM NaCl, 5% glycerol, 0.5 mM Tris(2-carboxyethyl)phosphine [TCEP]), ultracentrifuged at >200,000 rcf for 1 h, and the supernatant flo wed through Ni-NTA resin by gravity. The resin was washed with buffer A supplemented with 40 mM imidazole by […]

CDKL3 = tested on: T1, CDKL3; settings: 2.5 µM; Lys2; DIKPENILVSQSGITK
T1 construct: purchased ActivX Biosciences (KiNativ)
Protocol: as §1, §2, §3, §4, §5, §6, §7

CK1g1, CK1g2, CK1g3 = settings: 2.5 µM; ATP Loop; KIGCGNFGELR
Protocol: as §1, §2, §3, §4, §5, §6, §7

CaMKK2 = tested on: T2, CaMKK2; settings: 2.5 µM
T2 construct: purchased ActivX Biosciences (KiNativ)
Protocol: as §1, §2, §3, §4, §5, §6, §7

DRAK1, DRAK2 = settings: 2.5 µM; ATP Loop; GKFAVVR
Protocol: as §1, §2, §3, §4, §5, §6, §7

EGFR-L858R = tested on: T3, EGFR-L858R; settings: 2.5 µM; Activation Loop; AKLLGAEEK
T3 construct: purchased ActivX Biosciences (KiNativ)
Protocol: as §1, §2, §3, §4, §5, §6, §7

EphB4 = tested on: T4, EphB4; settings: 2.5 µM; Activation Loop; FLEENSSDPTYTSSLGGKIPIR
T4 construct: purchased ActivX Biosciences (KiNativ)
Protocol: as §1, §2, §3, §4, §5, §6, §7

Erk5 = tested on: T5, Erk5; settings: 2.5 µM; Lys2; DLKPSNLLVNENCELK
T5 construct: purchased ActivX Biosciences (KiNativ)
Protocol: as §1, §2, §3, §4, §5, §6, §7

FRK = tested on: T6, FRK; settings: 2.5 µM
T6 construct: purchased ActivX Biosciences (KiNativ)
Protocol: as §1, §2, §3, §4, §5, §6, §7

IRE1 = tested on: T7, IRE1; settings: 2.5 µM; Lys2; DLKPHNILISMPNAHGK
T7 construct: purchased ActivX Biosciences (KiNativ)
Protocol: as §1, §2, §3, §4, §5, §6, §7

ITPK1 = tested on: T8, ITPK1; settings: 2.5 µM; ATP; NFSAGTSDRESIFFNSHNVSKPESSSVLTELDKIEGVFERPSDEVIR
T8 construct: purchased ActivX Biosciences (KiNativ)
Protocol: as §1, §2, §3, §4, §5, §6, §7

MAP3K3 = tested on: T9, MAP3K3; settings: 2.5 µM; Lys1; ELASKQVQFDPDSPETSKEVSALECEIQLLK
T9 construct: purchased ActivX Biosciences (KiNativ)
Protocol: as §1, §2, §3, §4, §5, §6, §7

MAP3K4 = tested on: T10, MAP3K4; settings: 2.5 µM
T10 construct: purchased ActivX Biosciences (KiNativ)
Protocol: as §1, §2, §3, §4, §5, §6, §7

MARK3, MARK4 = settings: 2.5 µM; Lys1; EVAIKIIDK
Protocol: as §1, §2, §3, §4, §5, §6, §7

MPSK1 = tested on: T11, MPSK1; settings: 2.5 µM; Lys2; DLKPTNILLGDEGQPVLMDLGSMNQACIHVEGSR
T11 construct: purchased ActivX Biosciences (KiNativ)
Protocol: as §1, §2, §3, §4, §5, §6, §7

MST1, MST2 = settings: 2.5 µM; Lys2; DIKAGNILLNTEGHAK
Protocol: as §1, §2, §3, §4, §5, §6, §7

MST4, YSK1 = settings: 2.5 µM; Lys2; DIKAANVLLSEQGDVK
Protocol: as §1, §2, §3, §4, §5, §6, §7

NEK2 = tested on: T12, NEK2; settings: 2.5 µM; Lys2; DLKPANVFLDGK
T12 construct: purchased ActivX Biosciences (KiNativ)
Protocol: as §1, §2, §3, §4, §5, §6, §7

NEK9 = tested on: T13, NEK9; settings: 2.5 µM
T13 construct: purchased ActivX Biosciences (KiNativ)
Protocol: as §1, §2, §3, §4, §5, §6, §7

PIP4K2C = tested on: T14, PIP4K2C; settings: 2.5 µM, ATP
T14 construct: purchased ActivX Biosciences (KiNativ)
Protocol: as §1, §2, §3, §4, §5, §6, §7

PITSLRE = tested on: T15, PITSLRE; settings: 2.5 µM; Lys2; DLKTSNLLLSHAGILK
T15 construct: purchased ActivX Biosciences (KiNativ)
Protocol: as §1, §2, §3, §4, §5, §6, §7

SLK = tested on: T16, SLK; settings: 2.5 µM
T16 construct: purchased ActivX Biosciences (KiNativ)
Protocol: as §1, §2, §3, §4, §5, §6, §7

Wnk1, Wnk2, Wnk4 = settings: 2.5 µM; Activation Loop; IGDLGLATLKR
Protocol: as §1, §2, §3, §4, §5, §6, §7

[1] = Lys1, LGSGQFGEVWEGLWNNTTPVAVKTLKPGSMDPNDFLR

Row | Compound | Inhibition (AMPKa1, AMPKa2; Lys1, VAVKILNR) [%] | Inhibition (AMPKa1, AMPKa2; Lys2, DLKPENVLLDAHMNAK) [%] | Inhibition (CDKL3) [%] | Inhibition (CK1g1, CK1g2, CK1g3) [%] | Inhibition (CaMKK2; Lys1, LAYNENDNTYYAMKVLSK) [%] | Inhibition (CaMKK2; Lys2, DIKPSNLLVGEDGHIK) [%] | Inhibition (DRAK1, DRAK2) [%] | Inhibition (EGFR-L858R) [%] | Inhibition (EphB4) [%] | Inhibition (Erk5) [%] | Inhibition (FRK; Activation Loop, HEIKLPVK) [%] | Inhibition (FRK; [1]) [%] | Inhibition (IRE1) [%] | Inhibition (ITPK1) [%] | Inhibition (MAP3K3) [%] | Inhibition (MAP3K4; Lys1, VYTCISVDTGELMAMKEIR) [%] | Inhibition (MAP3K4; Lys2, DIKGANIFLTSSGLIK) [%] | Inhibition (MARK3, MARK4) [%] | Inhibition (MPSK1) [%] | Inhibition (MST1, MST2) [%] | other results
1 | C=CC(=O)Nc1cc(Nc2nccc(-c3cn(C)c4ccccc34)n2)c(OC)cc1N(C)CCN(C)C [Osimertinib, osimertinib, reference compound] | 6.4 | -33.2 | 4.6 | -14.3 | 73.3 | 60.8 | 13.6 | 98.2 | 19.2 | -4.1 | -27.9 | 12.8 | 13.6 | 22.9 | 10.8 | 0.9 | -3.4 | -12.5 | 0.8 | 17.9 | Inhibition (MST4, YSK1): -8.7%; Inhibition (NEK2): -4.3%; Inhibition (NEK9; Activation Loop, LGDYGLAKK): -11.0%; Inhibition (NEK9; Lys1, RTEDDSLVVWKEVDLTR): -18.7%; Inhibition (NEK9; Lys2, DIKTLNIFLTK): -12.2%; Inhibition (PIP4K2C; TLVIKEVSSEDIADMHSNLSNYHQYIVK): 59.0%; Inhibition (PIP4K2C; VKELPTLKDMDFLNK): 55.5%; Inhibition (PITSLRE): -3.8%; Inhibition (SLK; Lys1, AQNKETSVLAAAKVIDTK): -11.7%; Inhibition (SLK; Lys2, DLKAGNILFTLDGDIK): 8.3%; Inhibition (Wnk1, Wnk2, Wnk4): -32.3%
2 | C=CC(=O)Nc1cc(C(=O)Nc2nc3cccc(C)c3n2[C@@H]2CCCCN(C(=O)C=C)C2)cs1 [ZNL-0056] | 20.9 | 9.7 | -6.0 | 13.6 | 74.6 | 73.1 | 46.6 | 97.2 | -4.5 | -18.2 | -77.6 | 7.6 | -29.1 | -0.632 | -6.3 | 16.4 | -19.0 | 16.2 | 7.6 | 16.1 | Inhibition (MST4, YSK1): -9.0%; Inhibition (NEK2): -9.4%; Inhibition (NEK9; Activation Loop, LGDYGLAKK): -6.5%; Inhibition (NEK9; Lys1, RTEDDSLVVWKEVDLTR): 3.2%; Inhibition (NEK9; Lys2, DIKTLNIFLTK): 4.4%; Inhibition (PIP4K2C; TLVIKEVSSEDIADMHSNLSNYHQYIVK): 60.9%; Inhibition (PIP4K2C; VKELPTLKDMDFLNK): 53.5%; Inhibition (PITSLRE): 20.7%; Inhibition (SLK; Lys1, AQNKETSVLAAAKVIDTK): -4.8%; Inhibition (SLK; Lys2, DLKAGNILFTLDGDIK): -22.3%; Inhibition (Wnk1, Wnk2, Wnk4): 1.3%
